Laboratory results taken from patent US20100209536A1, “Methods and Kits for Use in the Treatment and Prevention of Diseases or Conditions of the Immune System or Infectious Diseases” (The Brigham and Women's Hospital, Inc., priority 2006, published 2010).

How the values were obtained:
Assay type in all cases: in vivo, human
[1] = test system: any wheeze in the first 2 yrs; experiment: Project Viva antioxidant study: maternal intake and any wheeze in the first 2 yrs; details: for Any wheeze in the first 2 yrs, Univariate Model OR (95% CI) / Any wheeze in the first 2 yrs, Multivariable Model OR (95% CI): including supplements; for Association of total maternal intake with any wheeze in univariable models: total intakes
Excerpt: (§1) Study subjects were enrolled in Project Viva, as described above. Recruitment and retention procedures have previously been published (Gillman et al., J. Pediatr. 144:240-245, 2004). We obtained information directly from participants and from medical records as detailed previously (Rifas-Shiman, Paediatr. Perinat. Epidemiol. 20:35-42, 2006). Data collected from interviews and questionnaires included demographics (infant gender, maternal marital status, and race), socioeconomic status (education and household income), and reproductive history (maternal gravidity, pre-pregnancy height and body mass index, and smoking). Questionnaires that inquired about infant health, feeding, and the home environment were administered when the child was 6 months, 1 year, and 2 years of age. Among 2,128 delivered infants in Project Viva, we excluded 228 participants because of missing first and second trimester diet assessment data and an additional 37 participants with a gestation of less than 34 completed weeks.
(§2) We assessed maternal diet using semi-quantitative food-frequency questionnaires (FFQ) validated for use during pregnancy (Fawzi et al., Ann. Epidemiol. 14:754-762, 2004), and used in several of our previous studies of maternal diet and offspring outcomes (Oken et al., Am. J. Epidemiol. 160:774-783, 2004; Huh et al., Int. J. Epidemiol. 34:378-384, 2005; Gillman et al., Circulation 110:1990-1995, 2004). As noted above, the FFQ used at the 1st visit reflected intakes in the 1st trimester; the time referent was “during this pregnancy,” that is from the date of the last menstrual period until the assessment, at an average of about 10 weeks gestation. To assess vitamin and supplement intake during the 1st trimester, we administered a separate interview that queried dose, duration, and brand/type of multivitamin, prescribed prenatal vitamins, and supplements. Also as noted above, the FFQ used at the 2nd visit (26 to 28 weeks of gestation) reflected intakes during the 2nd trimester; the time referent was “during the past 3 months.” The 2nd trimester instrument was the same as that for the 1st trimester except that we assessed use of vitamins/supplements as part of the self-completed FFQ.
(§3) To calculate intake of nutrients, we again used the Harvard nutrient composition database, which contains food composition values from the U.S. Department of Agriculture, supplemented by other data sources (U.S. Department of Agriculture ARS. USDA National Nutrient Database for Standard Reference, Release 14, 5R14; 2001). All nutrients were adjusted for total energy intake using the nutrient residuals method (Willett, Am. J. Clin. Nutr. 45:354-360, 1987). Mean nutrient intakes from the 1st and 2nd trimesters were used as the exposure in the analyses. If a participant only completed one FFQ, then nutrients calculated from that questionnaire were taken as the exposure of interest. One thousand one hundred and thirty-five (88.0%) of the 1,290 participants completed both FFQs, 96 (7.4%) completed the first trimester FFQ only, and 59 (4.6%) completed the second trimester FFQ only.
(§4) We ascertained the wheeze outcomes from questions from the First Year and Second Year Questionnaires: “since your child was born/since your child was […], has he/she ever had wheezing (or whistiling in the chest)?” “Any wheeze” was defined as a positive response to the question at either the first or second year questionnaire. “Recurrent wheeze” was defined as positive responses to the questions in both the first and second year questionnaires. […] “Respiratory infections” was defined as positive responses to one of three questions: “since your child was born/12 months old, have you been told by a health care professional (such as a doctor, physician assistant, or nurse practitioner) that your child has: (a) bronchiolitis; (b) pneumonia; (c) bronchitis, croup, or any other respiratory infection?” on either the first or second year questionnaires. […]

[2] = test system: respiratory infections in the 2-year old children; experiment: Project Viva antioxidant study: maternal intake and respiratory infections in 2-year old children
Excerpt: as §1
We assessed maternal diet using semi-quantitative food-frequency questionnaires (FFQ) validated for use during pregnancy (Fawzi et al., Ann. Epidemiol. 14:754-762, 2004), and used in several of our previous studies of maternal diet and offspring outcomes (Oken et al., Am. J. Epidemiol. 160:774-783, 2004; Huh et al., Int. J. Epidemiol. 34:378-384, 2005; Gillman et al., Circulation 110:1990-1995, 2004). As noted above, the FFQ used at the 1st visit reflected intakes in the 1st trimester; the time referent was “during this pregnancy,” that is from the date of the last menstrual period until the assessment, at an average of about 10 weeks gestation. […] Also as noted above, the FFQ used at the 2nd visit (26 to 28 weeks of gestation) reflected intakes during the 2nd trimester; the time referent was “during the past 3 months.” The 2nd trimester instrument was the same as that for the 1st trimester except that we assessed use of vitamins/supplements as part of the self-completed FFQ. […]

[3] = test system: recurrent wheeze in the first 2 yrs; experiment: Project Viva antioxidant study: maternal intake and recurrent wheeze in the first 2 yrs; details: including supplements
Excerpt: as §1, §2, §3, §4

[4] = 2nd vs 1st (lowest) quartile of maternal intake, calorie adjusted, n = 1,161
[5] = 2nd vs 1st (lowest) quartile of maternal intake
[6] = 3rd vs 1st (lowest) quartile of maternal intake
[7] = 4th (highest) vs 1st (lowest) quartile of maternal intake
[8] = 2nd vs 1st (lowest) quartile of maternal intake, n = 1,038

Structure (SMILES)	Any wheeze in the first 2 yrs, Univariate Model OR (95% CI) [1, 4]	Any wheeze in the first 2 yrs, Multivariable Model OR (95% CI) [1, 5]	Any wheeze in the first 2 yrs, Multivariable Model OR (95% CI) [1, 6]	Any wheeze in the first 2 yrs, Univariate Model OR (95% CI) [1, 6]	Any wheeze in the first 2 yrs, Multivariable Model OR (95% CI) [1, 7]	Any wheeze in the first 2 yrs, Univariate Model OR (95% CI) [1, 7]	Association of total maternal intake with any wheeze in univariable models [1]	Association of total maternal intake with respiratory infections in the children [2]	Recurrent wheeze in the first 2 yrs, Multivariable Model OR (95% CI) [3, 5]	Recurrent wheeze in the first 2 yrs, Univariate Model OR (95% CI) [3, 8]	Recurrent wheeze in the first 2 yrs, Multivariable Model OR (95% CI) [3, 6]	Recurrent wheeze in the first 2 yrs, Univariate Model OR (95% CI) [3, 6]	Recurrent wheeze in the first 2 yrs, Multivariable Model OR (95% CI) [3, 7]	Recurrent wheeze in the first 2 yrs, Univariate Model OR (95% CI) [3, 7]
O=C1O[C@H]([C@@H](O)CO)C(O)=C1O [Vitamin C, ascorbic acid]	0.82 (0.58, 1.15)	0.93 (0.65, 1.35)	0.84 (0.58, 1.22)	0.65 (0.46, 0.93)^5	0.79 (0.54, 1.15)	0.67 (0.47, 0.94)^5	associated with lower risks	not associated	1.05 (0.62, 1.77)	1.02 (0.63, 1.65)	1.04 (0.60, 1.78)	0.85 (0.52, 1.40)	0.75 (0.41, 1.36)	0.56 (0.32, 0.97)^5
CC(C)=CCC/C(C)=C/C=C/C(C)=C/C=C/C(C)=C/C=C/C=C(C)/C=C/C=C(C)/C=C/C=C(\C)CCC=C(C)C [Lycopene, lycopene]	1.27 (0.90, 1.80)	1.50 (1.02, 2.19)	1.67 (1.14, 2.45)	1.26 (0.90, 1.79)	0.96 (0.64, 1.42)	0.83 (0.58, 1.19)	–	–	1.06 (0.62, 1.83)	0.88 (0.53, 1.46)	1.40 (0.82, 2.40)	1.01 (0.62, 1.64)	0.75 (0.42, 1.33)	0.70 (0.42, 1.17)
Nc1nc2ncc(CNc3ccc(C(=O)N[C@@H](CCC(=O)O)C(=O)O)cc3)nc2c(=O)[nH]1 [Folic acid, folic acid]	0.94 (0.67, 1.32)	1.13 (0.78, 1.64)	0.79 (0.54, 1.16)	0.63 (0.44, 0.89)^5	0.89 (0.60, 1.31)	0.64 (0.45, 0.91)^5	associated with lower risks	–	0.93 (0.55, 1.58)	0.77 (0.48, 1.24)	0.75 (0.43, 1.28)	0.58 (0.35, 0.95)^5	0.68(0.38, 1.22)	0.46 (0.27, 0.78)^5
CC1=C(/C=C/C(C)=C/C=C/C(C)=C/C=C/C=C(C)/C=C/C=C(C)/C=C/C2=C(C)C[C@@H](O)CC2(C)C)C(C)(C)CCC1 [β Cryptoxanthin]	0.80 (0.57, 1.13)	0.82 (0.57, 1.18)	0.81 (0.56, 1.18)	0.72 (0.51, 1.02)	0.97 (0.67, 1.41)	0.92 (0.66, 1.30)	–	–	1.33 (0.78, 2.28)	1.36 (0.82, 2.24)	0.97 (0.55, 1.72)	0.95 (0.56, 1.63)	1.28 (0.73, 2.26)	1.05 (0.62, 1.78)
[Cu] [Copper, copper]	0.78 (0.55, 1.10)	0.93 (0.64, 1.35)	0.91 (0.62, 1.34)	0.71 (0.50, 1.01)	0.90 (0.61, 1.33)	0.69 (0.49, 0.99)^5	associated with lower risks	–	0.75 (0.43, 1.30)	0.63 (0.38, 1.03)	1.02 (0.60, 1.75)	0.67 (0.41, 1.09)	0.90 (0.51, 1.59)	0.57 (0.34, 0.95)^5
CC1=CCCC(C)(C)C1/C=C/C(C)=C/C=C/C(C)=C/C=C/C=C(C)/C=C/C=C(C)/C=C/C1=C(C)CCCC1(C)C (stereo not drawn) [α Carotene, α-carotene]	0.77 (0.54, 1.09)	0.87 (0.60, 1.26)	1.00 (0.69, 1.45)	0.82 (0.58, 1.16)	0.92 (0.63, 1.34)	0.75 (0.53, 1.06)	–	–	1.22 (0.71, 2.09)	0.98 (0.60, 1.60)	1.01 (0.57, 1.80)	0.74 (0.43, 1.25)	1.26 (0.72, 2.21)	0.88 (0.53, 1.45)
CC1=C(/C=C/C(C)=C/C=C/C(C)=C/C=C/C=C(C)/C=C/C=C(C)/C=C/C2=C(C)CCCC2(C)C)C(C)(C)CCC1 [β Carotene, β-carotene]	1.01 (0.71, 1.41)	1.28 (0.88, 1.88)	1.21 (0.82, 1.77)	0.85 (0.60, 1.20)	0.98 (0.66, 1.47)	0.71 (0.50, 1.02)	associated with lower risks	–	1.24 (0.72, 2.13)	0.85 (0.52, 1.37)	1.23 (0.72, 2.13)	0.76 (0.46, 1.24)	1.01 (0.56, 1.81)	0.58 (0.34, 0.97)^5
